Columns and labels:
[1] = tested on: AHL mediated quorum sensing; assay type: cell-based
AI-2 pathway = assay: microbe, parasite or virus in culture; assay type: cell-based, V. harveyi; conditions: Vibrio harveyi, read-out: AI-2 (% of control)
Staphylococcus aureus = assay: Growth of Staphylococcus aureus; assay type: cell-based
Method: The growth of Staphylococcus aureus against furanones was tested in sidearm flasks. One percent of an overnight culture was added to the growth media, Nutrient Broth, containing furanones at the concentrations 1-50 μg/ml. The bacteria were incubated at 37 C and growth was measured at 610 nm.

[2] = assay type: cell-based, V. vulnificus
V. vulnificus = assay: Attachment by V. vulnificus; assay type: cell-based

In the case of `C[C@@]1(Nc2ccccc2)OC(=O)C=C1N`, the AHL [1] is reported as “+ + +”, the activity at 5 µg/mL (AI-2 pathway) is reported as 80% and the activity at 10 µg/mL (AI-2 pathway) is reported as 57%. For the same compound, the activity at 50 µg/mL (AI-2 pathway) was 26%.

With `CCCCC1=CC(=C(Br)Br)N(c2ccccc2)C1=O` the AHL [1] was “+ + +”.

Work on `CC1(O)NC(=O)C=C1c1ccccc1` (centres unmarked) yielded an activity at 100 µg/mL (AI-2 pathway) of 39% and an activity at 25 µg/mL (Staphylococcus aureus; Staphylococcus aureus, growth, 25 μg/ml, read-out: S. aureus (% of control)) of 102%.

With `CCCCC1=C(Br)/C(=C/Nc2ccccc2)OC1=O` the AHL [1] was “+ + + +”, the activity at 20 µg/mL (AI-2 pathway) was 61% and the “S. aureus (% of control)” value (Staphylococcus aureus; growth, 50 ug/ml) was “No effect 50 μg/ml”.

With `CC1=CC(C)(Nc2ccccc2)OC1=O` (centres unmarked) the AHL [1] was “+ +”, the activity at 100 µg/mL (AI-2 pathway) was 50% and the “S. aureus (% of control)” value (Staphylococcus aureus; growth, 50 ug/ml) was “No effect 50 μg/ml”.

For `C/C=C1\NC(=O)C=C1C`, the AHL [1] was “+ + +” and the “S. aureus (% of control)” value (Staphylococcus aureus; growth, 50 ug/ml) was “No effect 50 μg/ml”.

In the case of `CCCCCCCC1=CC(=O)N(c2ccccc2)C1(O)CBr` (centres unmarked), the AHL [1] is reported as “+ + +”.

In the case of `CCCCC1=CC(=C(Br)Br)N(CCOC(=O)C(F)(F)F)C1=O`, the AHL [1] is reported as “+ + +” and the “S. aureus (% of control)” value (Staphylococcus aureus; growth, 50 ug/ml) is reported as “No effect (50 μg/ml)”.

With `CCCCC1=CC(=C(Br)Br)N(CCOS(=O)(=O)c2ccc(C)cc2)C1=O` the AHL [1] was “+ +” and the “S. aureus (% of control)” value (Staphylococcus aureus; growth, 50 ug/ml) was “No effect (50 μg/ml)”.

For `CCCC(Br)C1=CC(=C(Br)Br)N(c2ccccc2)C1=O` (centres unmarked) [drawing 24], the AHL [1] was “+ + + +” and the “S. aureus (% of control)” value (Staphylococcus aureus; growth for 10 hrs, concentration not given) was 0% growth at ug/ml for 10 hrs % of control.

For `O=C1C=C(Br)/C(=C/Nc2ccccc2)O1` [drawing 26], the AHL [1] was “+ + +”, the activity at 50 µg/mL (AI-2 pathway) was 2% and the activity at 50 µg/mL (Staphylococcus aureus; Staphylococcus aureus, growth, 50 ug/ml, read-out: S. aureus (% of control)) was 104%.

For `O=C1C=C(Br)/C(=C/Nc2ccccc2)O1` [drawing 35], the “reduction in swimming motility” value [2] was 40-50% reduction in swimming motility in V. cholerae and V. vulnificus and the reduction in attachment (V. vulnificus) was 30% reduction in attachment by V. vulnificus.

In the case of `CCCC(Br)C1=CC(=C(Br)Br)N(c2ccccc2)C1=O` (centres unmarked) [drawing 37], the “reduction in swimming motility” value [2] is reported as 40-50% reduction in swimming motility in V. cholerae and V. vulnificus and the reduction in attachment (V. vulnificus) is reported as 30% reduction in attachment by V. vulnificus.

— patent US20050215772A1, “Furanone derivatives and methods of making same” (priority 2002, published 2005)
